Data taken from publication PMC9927457 (Microbiology Spectrum, 2023).
Converted amounts (≈) assume the structure as drawn. Like-named read-outs stand apart in the source and are kept apart here.

What was measured:
[1] = test system: M. tuberculosis wild-type strain; experiment: MIC against wild-type M. tuberculosis; assay type: cell-based, Mycobacterium tuberculosis; settings: for MIC: read-out: MIC Wild type
[2] = test system: M. tuberculosis strain under expressing LepB (LepB-UE); experiment: microbe, parasite or virus in culture; assay type: cell-based, Mycobacterium tuberculosis
[3] = test system: HepG2 cells; experiment: HepG2 cytotoxicity; assay type: cell-based, human; settings: 3 days exposure, CellTiter-Glo
Protocol: HepG2 cells were used to measure eukaryotic cytotoxicity. Viability of HepG2 was measured using CellTiter-Glo reagent (Promega) after 3 days of exposure to compounds. […] Staurosporine controls (maximum inhibition) and a staurosporine dose response were included on every plate.

[4] = test system: Caco-2 cells; experiment: Caco-2 permeability
Protocol: (§1) Permeability was measured across Caco-2 cells cultured in a Millipore 96-well Caco-2 plate. For apical to basolateral (A→B) permeability, 10 μM compound was added to the apical (A) side and amount of permeation was determined on the basolateral (B) side; for basolateral to apical (B→A) permeability, the compound was added to the B side and the amount of permeation was determine on the A side. Time points were taken at 2 h.
Table S2. Permeability. Permeability was measured using Caco-2 cells after 1 and 2 hours incubation with compound. (A→B) is Apical to Basolateral; (B→A) is Basolateral to Apical. Data is expressed as permeability (10-6 cm s-1). dQ/dt is rate of permeation, C0 is initial concentration […]
Article Duration direction value replicate replicate mean recovery

[5] = Plasma protein binding (Rapid Equilibrium Dialysis); assay type: in vitro ADME, human
Protocol: Molecule fraction fraction Post-Assay
Table S5. Plasma protein binding
Protein binding was measured in human plasma using Rapid Equilibrium Dialysis (RED) devices (Pierce) according to the manufacturers’ instructions; 5 µM compounds in plasma were dialysed against PBS for 4 h at 37C. Compounds were detected by LC-MS/MS in plasma and PBS

[6] = Microsomal metabolic stability; settings: human, microsomes, pH 7.4
Protocol: as §1
Table S3. Metabolic stability. Metabolic stability was measured using human liver microsomes. […]

[7] = biological target: SPase activity in M. tuberculosis H37Rv cell membrane fractions (Mycobacterium tuberculosis, UniProt P9WKA1); experiment: Inhibition of secretion (SPase activity) in membrane fractions; assay type: biochemical; settings: fluorogenic peptide substrate 2 μM; 4 h, 37 °C
[8] = test system: RAW 264.7 macrophages; experiment: Cytotoxicity against infected macrophages; assay type: cell-based, murine; settings: Mus musculus; infected RAW264:7 cells, 72 h; read-out: IC50 Macrophage
Protocol: Murine RAW 264.7 macrophages (ATCC TIB-71) were infected with M. tuberculosis DsRed (DREAM8) ([29]) as described at a multiplicity of infection of 1 for 24 h, washed, harvested, and dispensed into 384-well plates ([30]). Infected macrophages were exposed to compounds for 72 h; cell nuclei were stained with SYBR green I. Plates were imaged with an ImageXpress Micro High Content Screening System (Molecular Devices) using a ×4 objective and FITC and Texas Red channels. MetaXpress was used to determine the integrated intensity of bacteria or macrophages. […] Isoniazid and staurosporine controls (maximum inhibition) and dose responses were included on every plate.

[9] = concentration required to inhibit growth by 90%, 5 days culture
[10] = Mycobacterium tuberculosis, 120 h, concentration required to inhibit growth by 90%, 5 days culture
[11] = Mycobacterium tuberculosis, 120 h

Sequence of SPase activity in M. tuberculosis H37Rv cell membrane fractions (P9WKA1 whole entry): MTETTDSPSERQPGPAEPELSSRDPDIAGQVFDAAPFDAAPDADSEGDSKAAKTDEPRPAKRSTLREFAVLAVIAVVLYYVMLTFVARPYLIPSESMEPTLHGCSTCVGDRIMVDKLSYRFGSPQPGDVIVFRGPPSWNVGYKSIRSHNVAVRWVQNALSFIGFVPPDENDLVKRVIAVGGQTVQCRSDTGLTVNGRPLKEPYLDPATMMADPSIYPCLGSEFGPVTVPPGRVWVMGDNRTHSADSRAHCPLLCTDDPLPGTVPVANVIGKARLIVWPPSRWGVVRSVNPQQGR

Compound	MIC [1, 10] [µM]	MIC [2, 11] [µM]	IC50 ([3]; Homo sapiens, HepG2, 72 h) [µM]	also measured
1-butyl-3-(5-methoxybenzo[d]oxazol-2-yl)thiourea [Molecule 35]				MIC [1, 9]: >200 µM; MIC [2]: >200 µM; IC50 [3]: > 100 µM
CC(C)NC[C@H](O)COc1cccc2ccccc12 (racemic) [Propanolol, propanolol, reference compound]				Efflux ratio (Re) ([4]; Papp(B→A)/Papp(A→B)): 1.5; Mean A→B Papp ([4]; apical to basolateral, 10 μM compound, 2 h): 20 10^−6 cm/s; Mean B→A Papp ([4]; basolateral to apical, 10 μM compound, 2 h): 30 10^−6 cm/s; Mean plasma fraction Unbound Fuplasma ([5]; human plasma, 5 µM, dialysed against PBS 4 h at 37C): 28.00%; Post-Assay Recovery ([5]; human plasma, RED device): 89.4%
COc1ccc2c(c1)[C@]13CCCC[C@@H]1[C@H](C2)N(C)CC3 [Dextromethorphan, dextromethorphan, reference compound]				half-life at 1 µM [6]: 1.97 h; microsomal CLint at 1 µM [6]: 19.5 µL/min/mg
CCCCCC(=O)Nc1nc2ccccc2s1 [Molecule 2]	> 200	> 200	74 ± 13	
Cc1ccc(C(=O)Nc2nc3ccccc3s2)cc1 [Molecule 3]	> 200	140 (≈ 37.6 µg/mL)	> 100	
CCCCCCNc1nc2ccccc2s1 [Molecule 4]	125 (≈ 29.3 µg/mL)	< 100	55 ± 8.5	MIC Wild type [1, 9]: 125 ± 13 µM (≈ 29.3 µg/mL); MIC LepB-UE [2]: 82 ± 16 µM (≈ 19.2 µg/mL)
CCCCNC(=O)Nc1nc2ccccc2s1 [Molecule 5]	> 200	< 100	39 ± 25	MIC LepB-UE [2]: 61 ± 9.1 µM (≈ 15.2 µg/mL)
S=C(NCc1ccccc1)Nc1nc2ccccc2s1 [Molecule 6]	> 200		6 ± 0.1	
COc1ccc(NC(=S)Nc2nc3ccccc3s2)cc1 [Molecule 7]	> 200	> 200	> 100	
COc1ccc(NC(=S)Nc2nccs2)cc1 [Molecule 8]	27 (≈ 7.16 µg/mL)		21 ± 19	MIC Wild type [1, 9]: 27 ± 17 µM (≈ 7.16 µg/mL); IC50 [7]: > 200 µM
CCCCNC(=S)Nc1ccccn1 [Molecule 9]	> 200	100 (≈ 20.9 µg/mL)	65 ± 50	
c1ccc2scnc2c1 [Molecule 10]	> 200	> 100	7.6 ± 6.2	
CCCCNC(=S)Nc1nc2ccccc2[nH]1 [Molecule 11, 1-(benzo[d]imidazol-2-yl)-3-butylthiourea]	120 ± 10 (≈ 29.8 µg/mL)	29 ± 2.1 (≈ 7.2 µg/mL)	6 ± 0.1	IC50 [7]: > 200 µM
CCCCNC(=S)Nc1nc2c(Cl)cccc2s1 [Molecule 13, 1-butyl-3-(4-chlorobenzo[d]thiazol-2-yl)thiourea]	> 200	7.9 (≈ 2.37 µg/mL)	> 100	MIC LepB-UE [2]: 7.9 ± 0.6 µM (≈ 2.37 µg/mL); IC50 [8]: 12 ± 2.8 µM; IC50 [7]: > 200 µM
CCCCNC(=S)NC1=NCCS1 [Molecule 15, 1-butyl-3-(4,5-dihydrothiazol-2-yl)thiourea]	170 (≈ 37 µg/mL)	160 (≈ 34.8 µg/mL)	75	MIC Wild type [1, 9]: 170 ± 1.0 µM (≈ 37 µg/mL); MIC LepB-UE [2]: 160 ± 1.0 µM (≈ 34.8 µg/mL); IC50 [3]: > 100 µM
CCCCNC(=S)Nc1nc(C)cs1 [Molecule 16, 1-butyl-3-(4-methylthiazol-2-yl)thiourea]	59 ± 1 (≈ 13.5 µg/mL)	85 ± 17 (≈ 19.5 µg/mL)	> 100	IC50 [7]: > 200 µM

Compound	MIC [1, 10] [µM]	MIC [2, 11] [µM]	IC50 ([3]; Homo sapiens, HepG2, 72 h) [µM]	also measured
CCCCNC(=S)Nc1nc(C)c(C)s1 [Molecule 17, 1-butyl-3-(4,5-dimethylthiazol-2-yl)thiourea]	> 200	112 ± 25 (≈ 27.3 µg/mL)	> 100	
CCCCNC(=S)Nc1nc(C)c[nH]1 [Molecule 18, 1-butyl-3-(4-methyl-1H-imidazol-2-yl)thiourea]	44 (≈ 9.34 µg/mL)	51 (≈ 10.8 µg/mL)	61 ± 4	MIC Wild type [1, 9]: 44 ± 8.0 µM (≈ 9.34 µg/mL); MIC LepB-UE [2]: 51 ± 1.0 µM (≈ 10.8 µg/mL)
CCCCNC(=S)Nc1ccnn1C [Molecule 19, 1-butyl-3-(1-methyl-1H-pyrazol-5-yl)thiourea]	> 200	> 200	> 100	IC50 [7]: > 200 µM
CCCCNC(=S)Nc1nccc(C)n1 [Molecule 20, 1-butyl-3-(4-methylpyrimidin-2-yl)thiourea]	> 200	> 200	> 100	
CCCCNC(=S)Nc1ncc(C)o1 [Molecule 22, 1-butyl-3-(5-methyloxazol-2-yl)thiourea]	10 (≈ 2.13 µg/mL)	8 to 9 (≈ 1.71 to 1.92 µg/mL)	32 ± 19	MIC Wild type [1, 9]: 10 ± 12 µM (≈ 2.13 µg/mL); MIC LepB-UE [2]: 9.1 ± 0.4 µM (≈ 1.94 µg/mL); IC50 [8]: 7.1 ± 1.5 µM
CCCCNC(=S)Nc1nc(-c2ccccc2)co1 [Molecule 23, 1-butyl-3-(4-phenyloxazol-2-yl)thiourea]	10 to 11 (≈ 2.75 to 3.03 µg/mL)	10 to 11 (≈ 2.75 to 3.03 µg/mL)	32 ± 4	MIC Wild type [1, 9]: 11 ± 4.0 µM (≈ 3.03 µg/mL); MIC LepB-UE [2]: 10 ± 2.0 µM (≈ 2.75 µg/mL); IC50 [8]: 30 ± 6.4 µM; IC50 [7]: > 200 µM
CCCCSC(=S)Nc1nc2ccccc2s1 [Molecule 25, butyl benzo[d]thiazol-2-ylcarbamodithioate]	90 ± 20 (≈ 25.4 µg/mL)	101 ± 27 (≈ 28.5 µg/mL)	29 ± 1	
S=C(NCCc1ccccc1)Nc1nc2ccccc2s1 [Molecule 26, 1-(benzo[d]thiazol-2-yl)-3-phenethylthiourea]	> 200	8 ± 3 (≈ 2.51 µg/mL)	8 ± 6	IC50 [8]: 1.4 ± 0.2 µM; IC50 [7]: > 200 µM; fraction unbound at 4 h, 5 µM ([5]; human, plasma, Mean plasma fraction Bound): 0.055
CCCCN(C)C(=S)Nc1nc2ccccc2s1 [Molecule 27, 3-(benzo[d]thiazol-2-yl)-1-butyl-1-methylthiourea]	195 ± 7 (≈ 54.5 µg/mL)	155 to 195 (≈ 43.3 to 54.5 µg/mL)	5.6	MIC [1, 11]: 155 to 195 µM (≈ 43.3 to 54.5 µg/mL); MIC LepB-UE [2]: 155 ± 36 µM (≈ 43.3 µg/mL); IC50 [3]: 6 ± 5 µM; IC50 [7]: > 200 µM
CC(C)CNC(=S)Nc1nc2ccccc2s1 [Molecule 28, 1-(benzo[d]thiazol-2-yl)-3-isobutylthiourea]		12 to 21 (≈ 3.18 to 5.57 µg/mL)		MIC LepB-UE [2]: 21 ± 11 µM (≈ 5.57 µg/mL)
CCCCNC(=S)Nc1ccc2scnc2c1 [Molecule 30, 1-(benzo[d]thiazol-5-yl)-3-butylthiourea]	73 ± 12 (≈ 19.4 µg/mL)	49 ± 15 (≈ 13 µg/mL)	> 100	
CCCCNC(=S)Nc1nc2cc(Cl)ccc2o1 [Molecule 32, 1-butyl-3-(5-chlorobenzo[d]oxazol-2-yl) thiourea]	84 ± 13 (≈ 23.8 µg/mL)	68 ± 3 (≈ 19.3 µg/mL)	9 ± 3	
CCCCNC(=S)Nc1nc2ccc(Cl)cc2o1 [Molecule 33, 1-butyl-3-(6-chlorobenzo[d]oxazol-2-yl)thiourea]	> 200	49 ± 6 (≈ 13.9 µg/mL)	32 ± 3	IC50 [7]: > 200 µM
CCCCNC(=S)Nc1nc2cccc(Cl)c2o1 [Molecule 34, 1-butyl-3-(7-chlorobenzo[d]oxazol-2-yl)thiourea]	> 200	53 ± 1 (≈ 15 µg/mL)	13 ± 3	IC50 [8]: 5.8 ± 0.4 µM
CC(=O)CC(c1ccccc1)c1c(O)c2ccccc2oc1=O (stereo not drawn) [Warfarin, reference compound]				recovery at 4 h, 5 µM ([5]; human plasma, RED device, read-out: Post-Assay Recovery): 88.6%; fraction unbound ([5]; human, plasma, human plasma, 5 µM, dialysed against PBS 4 h at 37C, read-out: Mean plasma fraction Bound (converted)): 0.007; fraction unbound ([5]; human, plasma, human plasma, 5 µM, dialysed against PBS 4 h at 37C, read-out: Mean plasma fraction Unbound Fuplasma): 0.0067
